Measured values reported in US20260258420A1, “COMPOSITIONS AND METHODS FOR THE TREATMENT OF HUMAN PAPILLOMAVIRUS-DRIVEN CANCERS” (priority 2023, published 2026).

Tests used:
[1] = test system: 2 HPV-positive cell lines with TRIP13 overexpression; experiment: Apoptosis with TRIP13 overexpression, HPV-positive cells; format: cell-based; details: 300 nmol/L, 24 or 32 hours
Protocol: FIG. 5A, two HPV-positive cell lines (CASKI and SIHA) were transfected with BUB1B or MAD2L1 siRNA and then treated for 24 hours with 300 nmol/L alisertib before lysis and immunoblotting with the indicated antibodies. FIG. 5B, TRIP13 was transiently overexpressed (Ox) in 2 HPV-positive cell lines that were treated for 24 hours with 300 nmol/L alisertib before lysis and immunoblotting for the indicated proteins. FIG. 5C, HPV-positive cell lines with TRIP13 overexpression were treated with 300 nmol/L alisertib for 32 hours and then stained for annexin V-PE/7AAD staining and analysis with flow cytometry to measure apoptosis. The bar graph represents the ratio of apoptosis (late plus early) among different groups. Values are the means±the standard deviations for 3 independent experiments. ** P≤0.01; *** P≤0.001; unpaired, 2-tailed Student t-test. FIG. 5D, HN31 (left panel) and MDA886LN (right panel) cells expressing RB1 or control shRNA were transfected with a plasmid for TRIP13. After 24 hours, cells were treated with 300 nmol/L alisertib and then lysed for immunoblotting. Cl, cleaved; Fl, full length; GAPDH, glyceraldehyde 3-phosphate dehydrogenase.
In normal cells, prolonged mitosis resulting from Mad2 overexpression can lead to G1 arrest or mitotic cell death, so it is unclear why Mad2 overexpression is tolerated in HPV-positive cancers. […]

[2] = test system: 2 HPV-positive cell lines transfected with MAD2L1 plasmid; experiment: Apoptosis with Mad2 overexpression; format: cell-based; details: 100 nmol/L, 24 hours
Protocol: FIG. 6A, mRNA expressions of MAD2L1, BUBIB and TRIP13 in HNSCC HPV-positive (n=70) and HPV-negative (n=447) HNSCC patient tumors from the TCGA (left panel) and in HPV-positive (n=51) and HPV-negative OPSCC [(n=28), right panel]. FIG. 6B, FIG. 6C, TRIP13 was depleted by siRNA in HPV-positive and negative cell lines. Cells were then treated with 100 nmol/L alisertib for 36 hours before being subjected to lysis and immunoblotting with the indicated antibodies (FIG. 6B) or annexin-PE staining to measure apoptosis using flow cytometry (FIG. 6C). FIG. 6D, FIG. 6E, the MAD2L1 plasmid was transiently transfected into 2 HPV-positive cell lines that were then treated with 100 nmol/L alisertib for 24 hours before being subjected to lysis and immunoblotting for the indicated proteins (FIG. 6D) or annexin-PE staining to measure apoptosis (FIG. 6E). Values are the means±the standard deviations for 3 independent experiments (** P≤0.01). Cl, cleaved; Fl, full length; GAPDH, glyceraldehyde 3-phosphate dehydrogenase; Ox, overexpression. FIG. 6F, model of the synthetic lethality between TRIP13 and Aurora kinase A. HPV-positive, Rb deficient cancer cells rely on both TRIP13 and Aurora kinase activity to maintain mitotic fidelity, such that their combined inhibition will lead to a prolonged spindle assembly checkpoint (SAC), irreversible mitotic arrest, and cancer cell death. […]

SMILES: COc1cc(Nc2ncc3c(n2)-c2ccc(Cl)cc2C(c2c(F)cccc2OC)=NC3)ccc1C(=O)O [ALISERTIB, alisertib]
- apoptosis with TRIP13 overexpression (PARP and caspase-3 cleavage, annexin V) [1]: partial rescue
- apoptosis with Mad2 overexpression [2]: enhanced apoptosis
